Columns and labels:
Assay type in all cases: cell-based
CK1α-HiBiT = molecular target: T1, CK1α-HiBiT (Homo sapiens, UniProt P48729); assay: Quantitative degradation assay using the HiBiT system (HEK293T); conditions: increased dosing to 10 μM, 24 h
T1 construct: expressed in transfected cells; host or cells: HEK293T
Description: (§1) An in vitro quantitative degradation assay utilizing the HiBiT system was carried out as previously described. To evaluate the degradation of IKZF1, IKZF2, and IKZF3 proteins, HEK293T cell lines stably expressing IKZF1-, IKZF2-, IKZF3-, GSPT1- or CK1α-HiBiT were cultured in 96-well plates at 12,000 cells per well. The cells were treated with different concentrations of the test compounds (MGD-A7 and MGD-C9) with concentrations of 0, 0.01, 0.033, 0.1, 0.33, 1, 3.3, 10 and 33 μM for the specified time intervals. After the treatment, cell lysis was carried out using the Nano-Glo HiBiT Lytic Detection System (#N3040, Promega). All lysis operations were strictly carried out according to the manufacturer’s specific protocol. Then, the SpectraMax iD3 instrument (Molecular Devices, San Jose, CA, USA) was used to detect the luminescent signals released by the HiBiT-tagged neosubstrates.

GSPT1-HiBiT = molecular target: T2, GSPT1-HiBiT (Homo sapiens, UniProt P15170); assay: as above; conditions: increased dosing to 10 μM, 24 h
T2 construct: expressed in transfected cells; host or cells: HEK293T
Description: as §1

IKZF2-HiBiT = molecular target: T3, IKZF2-HiBiT (Homo sapiens, UniProt Q9UKS7); assay: as above; conditions: dose response 24 h and time course 1 µM
T3 construct: expressed in transfected cells; host or cells: HEK293T
Description: as §1

IKZF2 = IKZF2 (Homo sapiens, UniProt Q9UKS7); assay: Immunoblot analysis of endogenous protein; set-up: endogenous in cells; host or cells: NCI-H929 and MV-4-11; conditions: NCI-H929 and MV-4-11 cells
Description: Cells (NCI-H929 and MV-4-11) were plated into 6-well plates. They were then treated with different concentrations (0, 0.01, 0.1, 1, 10 μM) of the compounds (MGD-A7, MGD-C9) or the designated time periods. Afterward, the cells were washed with phosphate-buffered saline (PBS, pH = 7.2–7.4, 1×). Next, they were lysed using RIPA buffer (#R0278-500ML, Sigma-Aldrich, MO, USA), and the cell lysates were precisely measured. Following this, the total protein lysates underwent 10% sodium dodecyl sulfate-polyacrylamide gel electrophoresis (SDS-PAGE). This method efficiently separated the proteins based on their molecular weights. Subsequently, the separated proteins were transferred onto a nitrocellulose membrane (#HATF00010, […], Madison, WI, USA). The membranes were then successively incubated with the indicated primary antibodies. […] The chemiluminescent signal was detected, and membrane images were captured with an Imaging system (Bio-Rad, Hercules, CA, USA). ImageJ analysis software (V1.8.0.112, National Institutes of Health, NIH, Bethesda, MD, USA) was employed to analyze the intensity of protein bands, aiming to quantify the relative expression levels of the target proteins. The half-maximal degradation concentration (DC50) value, which indicates the concentrations of test compounds showing 50% protein degradation efficacy, was calculated using GraphPad Prism 8.0.

CRBN^−/− NCI-H929 cells = assay: Cell apoptosis assay, CRBN knockout cells
Description: […] NCI-H929 and MV-4-11 cells were seeded at a density of 1 × 10^6 cells/well in 6-well tissue culture-treated plates. […] On day 7, GFP-positive cells were sorted as single cells into 96-well plates. Isolated single-cell clones were screened via western blot analysis, using wild-type NCI-H929 or MV-4-11 cells as positive controls.
Cells (NCI-H929 and MV-4-11) were seeded at a density of 1 × 10^6 cells per well into 6-well dishes. […] Apoptosis was assessed using an Annexin V-FITC kit (#ab14085; Abcam, MA, USA) on a FACS Calibur Flow Cytometer (Becton Dickinson, Franklin Lakes, NJ, USA). […] Finally, the samples were analyzed using a FACS Calibur Flow Cytometer.

endogenous IKZF1 = molecular target: T4, endogenous IKZF1 (Homo sapiens, UniProt Q13422+Q96SW2); assay: Immunoblot analysis of endogenous protein; conditions: both NCI-H929 and MV-4-11 cells, 24 h, greater than pomalidomide
T4 construct: endogenous in cells; host or cells: NCI-H929 and MV-4-11
Description: (§2) Cells (NCI-H929 and MV-4-11) were plated into 6-well plates. They were then treated with different concentrations (0, 0.01, 0.1, 1, 10 μM) of the compounds (MGD-A7, MGD-C9) or the designated time periods. Afterward, the cells were washed with phosphate-buffered saline (PBS, pH = 7.2–7.4, 1×). Next, they were lysed using RIPA buffer (#R0278-500ML, Sigma-Aldrich, MO, USA), and the cell lysates were precisely measured. Following this, the total protein lysates underwent 10% sodium dodecyl sulfate-polyacrylamide gel electrophoresis (SDS-PAGE). This method efficiently separated the proteins based on their molecular weights. Subsequently, the separated proteins were transferred onto a nitrocellulose membrane (#HATF00010, […], Madison, WI, USA). The membranes were then successively incubated with the indicated primary antibodies. These antibodies were diluted in 5% bovine serum albumin (BSA) in Tris-buffered saline with Tween 20 (TBST, #TF103; Epizyme, Shanghai, China). The incubation was conducted overnight at 4°C with gentle agitation. The secondary antibodies were also diluted in 5% BSA in TBST (#TF103; Epizyme, Shanghai, China). […] Finally, after thorough washing with TBST, the membranes were developed using an enhanced chemiluminescence (ECL) substrate (#WBULS0100, Sigma-Aldrich). The chemiluminescent signal was detected, and membrane images were captured with an Imaging system (Bio-Rad, Hercules, CA, USA). ImageJ analysis software (V1.8.0.112, National Institutes of Health, NIH, Bethesda, MD, USA) was employed to analyze the intensity of protein bands, aiming to quantify the relative expression levels of the target proteins. The half-maximal degradation concentration (DC50) value, which indicates the concentrations of test compounds showing 50% protein degradation efficacy, was calculated using GraphPad Prism 8.0.

endogenous CK1α = molecular target: T5, endogenous CK1α (Homo sapiens, UniProt P48729); assay: Immunoblot analysis of endogenous protein; conditions: both NCI-H929 and MV-4-11 cells, up to 10 μM, 24 h
T5 construct: endogenous in cells; host or cells: NCI-H929 and MV-4-11
Description: as §2

endogenous GSPT1 = molecular target: T6, endogenous GSPT1 (Homo sapiens, UniProt P15170); assay: Immunoblot analysis of endogenous protein; conditions: both NCI-H929 and MV-4-11 cells, up to 10 μM, 24 h
T6 construct: endogenous in cells; host or cells: NCI-H929 and MV-4-11
Description: as §2

endogenous IKZF3 = molecular target: T7, endogenous IKZF3 (Homo sapiens, UniProt Q96SW2+Q9UKT9); assay: Immunoblot analysis of endogenous protein; conditions: both NCI-H929 and MV-4-11 cells, 24 h, greater than pomalidomide
T7 construct: endogenous in cells; host or cells: NCI-H929 and MV-4-11
Description: as §2

MV-4-11 = assay: Cell viability (CCK-8) assay; conditions: for IC50: Homo sapiens, MV4-11, 96 h, 96 h, CCK-8
Description: (§3) The plated at a density of 15,000 cells per well, and each well contained 100 µL of medium. Subsequently, different compounds (MGD-AX, MGD-BX, MGD-CX) were added to each well. […] To evaluate the antiproliferative effects of these compounds, the Cell Counting Kit-8 (CCK-8, #CX007, Epizyme, Shanghai, China) was used. All procedures were carried out in strict accordance with the manufacturer’s instructions (Dojindo Laboratories, Mamoto Ken, Japan).

NCI-H929 = assay: Cell viability (CCK-8) assay; conditions: Homo sapiens, NCI-H929, 96 h
Description: as §3

Ocl-Ly3 = assay: Cell viability (CCK-8) assay; conditions: for IC50: 96 h, CCK-8
Description: as §3

OPM-2 = assay: Cell viability (CCK-8) assay; conditions: Homo sapiens, OPM-2; MM, 96 h; read-out: IC50 (μM) OPM-2
Description: as §3

WSU-DLCL-2 = assay: Cell viability (CCK-8) assay; conditions: Homo sapiens, WSUDLCL2; DLBCL, 96 h; read-out: IC50 (μM) WSU-DLCL-2
Description: as §3

RPMI-8226 = assay: Cell viability (CCK-8) assay; conditions: Homo sapiens, RPMI-8226; MM, 96 h; read-out: IC50 (μM) RPMI-8226
Description: as §3

T6 sequence (Q96SW2 whole entry partner): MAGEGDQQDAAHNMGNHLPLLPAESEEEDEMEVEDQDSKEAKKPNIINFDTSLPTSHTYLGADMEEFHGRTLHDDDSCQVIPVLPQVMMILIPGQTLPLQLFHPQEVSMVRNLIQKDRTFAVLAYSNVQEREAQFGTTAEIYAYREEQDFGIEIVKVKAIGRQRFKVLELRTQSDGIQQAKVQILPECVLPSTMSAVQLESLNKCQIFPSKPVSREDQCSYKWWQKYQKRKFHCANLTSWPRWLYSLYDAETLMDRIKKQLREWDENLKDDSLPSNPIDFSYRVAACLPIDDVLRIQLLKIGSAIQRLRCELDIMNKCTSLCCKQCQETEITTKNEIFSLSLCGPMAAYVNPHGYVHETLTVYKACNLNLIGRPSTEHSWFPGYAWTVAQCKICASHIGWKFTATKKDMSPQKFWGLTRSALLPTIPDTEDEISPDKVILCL
T6 sequence (Q16531 whole entry partner): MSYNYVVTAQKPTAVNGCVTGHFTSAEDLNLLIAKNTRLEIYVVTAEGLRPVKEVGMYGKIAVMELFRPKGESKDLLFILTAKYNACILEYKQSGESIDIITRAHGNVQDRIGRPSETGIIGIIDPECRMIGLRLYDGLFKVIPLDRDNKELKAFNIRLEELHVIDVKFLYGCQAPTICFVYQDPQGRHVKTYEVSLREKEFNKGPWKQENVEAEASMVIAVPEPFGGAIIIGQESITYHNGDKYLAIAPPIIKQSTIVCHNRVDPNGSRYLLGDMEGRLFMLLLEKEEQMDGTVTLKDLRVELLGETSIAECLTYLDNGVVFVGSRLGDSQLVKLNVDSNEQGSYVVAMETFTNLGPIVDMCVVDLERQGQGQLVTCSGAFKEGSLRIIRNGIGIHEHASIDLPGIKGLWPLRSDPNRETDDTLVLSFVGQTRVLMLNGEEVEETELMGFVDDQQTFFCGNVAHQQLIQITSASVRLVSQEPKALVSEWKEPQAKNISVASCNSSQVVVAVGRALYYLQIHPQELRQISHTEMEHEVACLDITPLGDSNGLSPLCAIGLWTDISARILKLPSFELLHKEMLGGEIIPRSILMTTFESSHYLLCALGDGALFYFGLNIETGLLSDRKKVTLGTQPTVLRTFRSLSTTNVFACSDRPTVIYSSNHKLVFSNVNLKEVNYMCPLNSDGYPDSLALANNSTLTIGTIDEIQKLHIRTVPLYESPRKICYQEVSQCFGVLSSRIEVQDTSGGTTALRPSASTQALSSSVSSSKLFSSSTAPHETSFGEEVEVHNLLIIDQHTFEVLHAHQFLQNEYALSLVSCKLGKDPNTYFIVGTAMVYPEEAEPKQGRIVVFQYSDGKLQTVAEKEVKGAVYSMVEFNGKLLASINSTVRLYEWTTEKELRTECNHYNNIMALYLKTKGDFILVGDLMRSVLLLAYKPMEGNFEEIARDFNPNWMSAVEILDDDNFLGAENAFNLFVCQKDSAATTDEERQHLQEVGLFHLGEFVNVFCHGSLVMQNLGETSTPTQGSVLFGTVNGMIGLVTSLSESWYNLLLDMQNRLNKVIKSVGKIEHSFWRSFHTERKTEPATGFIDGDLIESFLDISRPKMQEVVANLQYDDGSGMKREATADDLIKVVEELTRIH
T6 sequence (P15170 whole entry): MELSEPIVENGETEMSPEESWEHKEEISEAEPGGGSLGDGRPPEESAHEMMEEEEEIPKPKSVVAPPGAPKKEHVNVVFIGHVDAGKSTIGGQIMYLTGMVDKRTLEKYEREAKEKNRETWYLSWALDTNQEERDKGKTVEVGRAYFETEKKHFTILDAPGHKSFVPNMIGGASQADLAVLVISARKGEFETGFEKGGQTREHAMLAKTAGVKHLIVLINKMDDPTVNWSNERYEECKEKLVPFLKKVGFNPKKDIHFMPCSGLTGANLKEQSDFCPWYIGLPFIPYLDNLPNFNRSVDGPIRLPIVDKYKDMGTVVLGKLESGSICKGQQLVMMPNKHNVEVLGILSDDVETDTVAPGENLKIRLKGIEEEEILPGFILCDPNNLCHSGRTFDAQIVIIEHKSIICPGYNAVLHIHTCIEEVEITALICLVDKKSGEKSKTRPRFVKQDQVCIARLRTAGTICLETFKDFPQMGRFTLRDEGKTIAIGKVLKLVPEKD
T1 sequence (Q96SW2 whole entry partner): as the sequence (Q96SW2 whole entry partner) above
T1 sequence (Q16531 whole entry partner): as the sequence (Q16531 whole entry partner) above
T1 sequence (P48729 whole entry): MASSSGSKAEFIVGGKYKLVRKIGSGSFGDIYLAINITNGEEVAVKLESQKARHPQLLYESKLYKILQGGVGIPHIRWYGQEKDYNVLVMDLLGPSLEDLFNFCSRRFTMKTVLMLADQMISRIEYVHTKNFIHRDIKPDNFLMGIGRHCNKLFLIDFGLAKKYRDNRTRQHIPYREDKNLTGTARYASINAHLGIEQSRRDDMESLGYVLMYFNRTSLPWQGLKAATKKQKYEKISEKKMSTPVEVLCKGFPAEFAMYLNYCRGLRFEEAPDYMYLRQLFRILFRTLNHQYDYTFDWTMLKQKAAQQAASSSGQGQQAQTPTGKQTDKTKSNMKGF
T3 sequence (Q96SW2 whole entry partner): as the sequence (Q96SW2 whole entry partner) above
T3 sequence (Q16531 whole entry partner): as the sequence (Q16531 whole entry partner) above
T3 sequence (Q9UKS7 whole entry): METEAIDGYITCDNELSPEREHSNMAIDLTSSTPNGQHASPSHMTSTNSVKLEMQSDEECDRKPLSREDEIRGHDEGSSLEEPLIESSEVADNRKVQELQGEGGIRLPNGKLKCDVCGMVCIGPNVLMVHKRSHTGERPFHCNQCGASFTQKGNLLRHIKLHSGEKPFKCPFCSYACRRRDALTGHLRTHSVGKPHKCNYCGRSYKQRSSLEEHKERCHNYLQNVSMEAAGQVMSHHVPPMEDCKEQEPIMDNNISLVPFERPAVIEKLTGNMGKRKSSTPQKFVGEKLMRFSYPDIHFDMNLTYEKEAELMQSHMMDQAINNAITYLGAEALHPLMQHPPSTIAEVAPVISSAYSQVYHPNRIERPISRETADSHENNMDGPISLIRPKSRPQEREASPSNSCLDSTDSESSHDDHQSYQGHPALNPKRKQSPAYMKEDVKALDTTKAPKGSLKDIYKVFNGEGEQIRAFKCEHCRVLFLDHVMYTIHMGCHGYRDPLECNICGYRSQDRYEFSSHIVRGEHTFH
Sequence of IKZF2 (Q96SW2 whole entry partner): as the sequence (Q96SW2 whole entry partner) above
Sequence of IKZF2 (Q16531 whole entry partner): as the sequence (Q16531 whole entry partner) above
Sequence of IKZF2 (Q9UKS7 whole entry): as the sequence (Q9UKS7 whole entry) above
T5 sequence (Q96SW2 whole entry partner): as the sequence (Q96SW2 whole entry partner) above
T5 sequence (Q16531 whole entry partner): as the sequence (Q16531 whole entry partner) above
T5 sequence (P48729 whole entry): as the sequence (P48729 whole entry) above
T2 sequence (Q96SW2 whole entry partner): as the sequence (Q96SW2 whole entry partner) above
T2 sequence (Q16531 whole entry partner): as the sequence (Q16531 whole entry partner) above
T2 sequence (P15170 whole entry): as the sequence (P15170 whole entry) above
T7 sequence (Q9UKT9 whole entry): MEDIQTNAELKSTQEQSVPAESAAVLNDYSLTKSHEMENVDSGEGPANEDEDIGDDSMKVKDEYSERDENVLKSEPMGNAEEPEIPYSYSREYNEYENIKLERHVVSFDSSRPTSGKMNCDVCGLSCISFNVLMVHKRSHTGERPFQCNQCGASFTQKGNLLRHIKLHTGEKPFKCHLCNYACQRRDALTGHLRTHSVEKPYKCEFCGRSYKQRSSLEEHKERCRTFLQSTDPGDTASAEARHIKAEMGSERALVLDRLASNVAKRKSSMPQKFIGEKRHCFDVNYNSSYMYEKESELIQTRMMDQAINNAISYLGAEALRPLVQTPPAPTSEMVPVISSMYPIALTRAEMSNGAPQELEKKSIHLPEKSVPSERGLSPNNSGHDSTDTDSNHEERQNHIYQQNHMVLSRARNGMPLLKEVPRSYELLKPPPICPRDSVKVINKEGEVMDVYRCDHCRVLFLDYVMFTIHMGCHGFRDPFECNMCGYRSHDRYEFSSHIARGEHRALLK
T7 sequence (Q96SW2 whole entry): as the sequence (Q96SW2 whole entry partner) above
T7 sequence (Q16531 whole entry partner): as the sequence (Q16531 whole entry partner) above
T4 sequence (Q13422 whole entry): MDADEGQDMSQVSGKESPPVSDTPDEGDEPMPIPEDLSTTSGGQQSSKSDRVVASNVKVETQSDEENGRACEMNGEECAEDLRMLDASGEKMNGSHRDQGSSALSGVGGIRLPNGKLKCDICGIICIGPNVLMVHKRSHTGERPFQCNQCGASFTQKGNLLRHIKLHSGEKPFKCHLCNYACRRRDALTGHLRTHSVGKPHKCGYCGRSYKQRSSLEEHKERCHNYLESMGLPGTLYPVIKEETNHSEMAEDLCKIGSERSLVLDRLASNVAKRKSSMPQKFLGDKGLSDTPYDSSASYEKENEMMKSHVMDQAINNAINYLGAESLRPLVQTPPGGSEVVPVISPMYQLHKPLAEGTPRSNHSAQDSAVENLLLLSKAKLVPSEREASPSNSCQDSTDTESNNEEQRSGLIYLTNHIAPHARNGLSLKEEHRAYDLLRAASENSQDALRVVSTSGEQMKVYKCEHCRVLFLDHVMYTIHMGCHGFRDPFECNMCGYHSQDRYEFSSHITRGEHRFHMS
T4 sequence (Q96SW2 whole entry): as the sequence (Q96SW2 whole entry partner) above
T4 sequence (Q16531 whole entry partner): as the sequence (Q16531 whole entry partner) above

degradation effect on luminescence signals of CK1α-HiBit (CK1α-HiBiT)	degradation effect on luminescence signals of GSPT1-HiBit (GSPT1-HiBiT)	effect on luminescence signals from IKZF2-HiBit (IKZF2-HiBiT)	degradation on IKZF2 (IKZF2)	degradation of endogenous IKZF1 (endogenous IKZF1)	degradation of endogenous CK1α (endogenous CK1α)	degradation of endogenous GSPT1 (endogenous GSPT1)	degradation of endogenous IKZF3 (endogenous IKZF3)	IC50 (MV-4-11) [µM]	IC50 (NCI-H929) [µM]	IC50 (RPMI-8226) [µM]	Structure (SMILES)	apoptosis (in words) (CRBN^−/− NCI-H929 cells)	fold higher antiproliferative activity than avadomide (MV-4-11; MV-4-11 cells)	IC50 (Ocl-Ly3) [µM]	times stronger antiproliferative activity than avadomide (Ocl-Ly3; Ocl-Ly3 cells)	IC50 (OPM-2) [µM]	IC50 (WSU-DLCL-2) [µM]
minimal degradation effects	minimal degradation effects	minimal inhibition	minimal degradation	effectively induced the degradation	minimal degradation effects	minimal degradation effects	effectively induced the degradation	0.21 ± 0.02	0.26 ± 0.03	1.23	CN1CCN(Cc2cccc(C(=O)NC3CCC(=O)NC3=O)c2F)C(=O)C1 (centres unmarked) [MGD-C9, N-(2,6-dioxopiperidin-3-yl)-2-fluoro-3-((4-methyl-2-oxopiperazin-1-yl)methyl)benzamide]	neither compound elicited apoptosis	approximately 4 fold	0.81 ± 0.09	approximately 20 times	0.0845	2.24
minimal degradation effects	minimal degradation effects	minimal inhibition	minimal degradation	effectively induced the degradation	minimal degradation effects	minimal degradation effects	effectively induced the degradation	0.59 ± 0.07	0.67 ± 0.1	2.11	CN1CCN(Cc2cccc(C(=O)NC3CCC(=O)NC3=O)c2)CC1 (centres unmarked) [MGD-A7, N-(2,6-dioxopiperidin-3-yl)-3-((4-methylpiperazin-1-yl)methyl)benzamide]	neither compound elicited apoptosis	–	2.32 ± 0.22	–	0.153	3.82

Reference: paper PMC12494099, “Discovery and Characterization of Novel IKZF1/3 Glue Degraders against Multiple Hematological Cancer Cell Lines” (Oncology Research, 2025)
